Patent publication EP0155872A1, “Process for reducing the lignin content of plants, and compositions for putting it into use” (priority 1984, dated 1985)

Key:
[1] = test system: CCR; assay: Inhibition of cinnamoyl:CoA reductase (CCR); type: biochemical
[2] = test system: plants de maïs; assay: Growth of maize plants treated with the inhibitors (weights, water content); type: in vivo
Description: Des plants de maïs ont été traités pendant 10, 20 ou 30 jours par l'OHPAS et le NH2PAS à deux concentrations (80 et 160 µM).
Les .inhibiteurs sont ajoutés au milieu nutritif.
Les cultures sur vermiculite (20 plants) sont arrosées quotidiennement par 250 ml de milieu (avec ou sans inhibiteurs). Les semis constituent le temps 0 de la culture, l'addition des inhibiteurs au milieu nutritif est réalisée dès l'émergence de la partie aérienne (2 à 3 jours). Les différentes caractéristiques des plants sont estimées après 10, 20 ou 30 jours.
Le traitement par les deux inhibiteurs conduit à des plants de maïs dont les caractéristiques pondérales et les teneurs en eau sont données dans le tableau 4. L'analyse des résultats ne montre aucune différence significative entre les plants traités et les plants témoins. De même, les tailles et l'aspect morphologique des différents lots sont similaires. Toutefois, on constate que le port dressé des maïs est légèrement affecté.

[3] = test system: plants de mais; assay: Primary metabolism of treated maize plants (soluble proteins, chlorophylls, nucleic acids); type: in vivo; conditions: plants âgés de 30 jours; 80 µM
Description: Les différentes études dont les résultats sont rapportés ci-après ont été réalisées à partir de plants de mais âgés de 30 jours et traités par l'OHPAS et le NH2PAS à la concentration de 80 µM.
Afin d'estimer l'action de l'OHPAS et du NH2PAS sur le métabolisme primaire, les teneurs de trois classes de composés ont été estimées : les protéines solubles, les chlorophyllles et les acides nucléiques.

[4] = target: T1, CAD (Populus deltoides, UniProt P31657); assay: Specificity of the inhibitors among the enzymes tested; type: biochemical
T1 sequence (P31657 1-357): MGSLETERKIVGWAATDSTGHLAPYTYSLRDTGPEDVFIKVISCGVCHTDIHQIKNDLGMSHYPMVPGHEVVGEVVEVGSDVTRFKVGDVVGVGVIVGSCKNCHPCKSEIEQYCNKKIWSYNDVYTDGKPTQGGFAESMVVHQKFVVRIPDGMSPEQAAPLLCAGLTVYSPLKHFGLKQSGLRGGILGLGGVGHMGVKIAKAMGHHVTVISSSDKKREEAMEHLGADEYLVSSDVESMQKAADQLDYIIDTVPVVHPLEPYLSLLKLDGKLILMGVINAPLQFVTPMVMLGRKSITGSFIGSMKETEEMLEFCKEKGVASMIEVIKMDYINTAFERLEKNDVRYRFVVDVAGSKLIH

[5] = test system: tiges de peuplier; assay: Incorporation of cinnamic acid (14C3) into lignins in cut poplar stems; type: in vivo; conditions: 96 heures de métabolisation, read-out: inhibition de l'incorporation de l'acide cinnamique dans le polymère
Source text: Afin de vérifier chez des tiges de peuplier l'action de l'OHPAS et du NH2PAS, on réalise des incorporations d'acide cinnamique (5 yCi) à des rameaux comportant 12 entrenoeuds selon la technique de la tige sectionnée décrite par BOUDET,dans C.R. Acad. Sci.Paris, p. 1966-1968, 269, 1969. La radioactivité des lignines est mesurée après 96 heures de métabolisation.
Lorsque la métabolisation est effectuée en présence du OHPAS et du NH2PAS, on observe une diminution de la radioactivité incorporée dans les lignines. Ainsi, l'OHPAS, à la concentration de 160 µM inhibe de 46% l'incorporation de l'acide cinnamique dans le polymère. Bien que les concentrations en inhibiteurs soient plus faibles, l'effet des inhibiteurs apparaîtsemanifester de façon plus nette-pour une métabolisation de plus longue durée.

[6] = 10 jours de culture, 160 µm en inhibiteurs
[7] = 10 jours de culture, concentration not given
[8] = 10 jours de culture, concentration not given, mean of 20 plants
[9] = 20 jours de culture, 160 µm en inhibiteurs
[10] = 20 jours de culture, concentration not given
[11] = 30 jours de culture, 160 µm en inhibiteurs
[12] = 30 jours de culture, concentration not given

| SMILES | Poids matériel frais g/plant [2, 6] | Poids matériel sec g/plant [2, 6] | Teneur en eau g/g de poids sec [2, 6] | Poids matériel sec g/plant [2, 7] | Teneur en eau g/g de poids sec [2, 7] | Poids matériel frais g/plant [2, 8] | Poids matériel frais g/plant [2, 9] | Poids matériel sec g/plant [2, 9] | Teneur en eau g/g de poids sec [2, 9] | Poids matériel frais g/plant [2, 10] | Poids matériel sec g/plant [2, 10] | Teneur en eau g/g de poids sec [2, 10] | Poids matériel frais g/plant [2, 11] | Poids matériel sec g/plant [2, 11] | Teneur en eau g/g de poids sec [2, 11] | Poids matériel frais g/plant [2, 12] | Poids matériel sec g/plant [2, 12] | Teneur en eau g/g de poids sec [2, 12] | ADN (mg/g PS) [3] | ARN (mg/g PS) [3] | also measured |
| --- | --- | --- | --- | --- | --- | --- | --- | --- | --- | --- | --- | --- | --- | --- | --- | --- | --- | --- | --- | --- | --- |
| CC(C)(C)OC(=O)C[S+]([O-])Nc1ccccc1N (centres unmarked) [composé 5, N-(o-Amino phényl)Sulfinamoyl Acétate de tertiobutyle] | 1,00 g/plant | 0,088 g/plant | 13,36 g/g de poids sec | 0,108 g/plant | 15,70 g/g de poids sec | 1,80 g/plant | 3,25 g/plant | 0,321 g/plant | 9,12 g/g de poids sec | 3,00 g/plant | 0,298 g/plant | 9,07 g/g de poids sec | 4,80 g/plant | 0,458 g/plant | 9,48 g/g de poids sec | 4,40 g/plant | 0,438 g/plant | 9,04 g/g de poids sec | 1,38 ± 0,7 mg/g PS | 19,81 ± 0,2 mg/g PS | inhibition de la CCR [1]: inhibe également la CCR; Chlorophylles (mg/g PS) [3]: 7,69 ± 0,3 mg/g PS; Protéines solubles (mg/g PS) [3]: 49,30 ± 2 mg/g PS |
| CC(C)(C)OC(=O)C[S+]([O-])Nc1ccccc1O (centres unmarked) [composé 2, N-(o -hydroxy phényl)sulfinamoyl acétate de tertiobutyle] | 0,98 g/plant | 0,083 g/plant | 10,81 g/g de poids sec | 0,103 g/plant | 18,40 g/g de poids sec | 2,00 g/plant | 2,98 g/plant | 0,300 g/plant | 8,93 g/g de poids sec | 3,20 g/plant | 0,318 g/plant | 9,06 g/g de poids sec | 4,52 g/plant | 0,429 g/plant | 9,53 g/g de poids sec | 4,65 g/plant | 0,420 g/plant | 10,07 g/g de poids sec | 1,35 ± 0,6 mg/g PS | 21,08 ± 0,3 mg/g PS | spécificité en regard des enzymes testées [4]: spécificité stricte vis-à-vis de la CAD; inhibition at 160 µM [5]: 46%; Chlorophylles (mg/g PS) [3]: 7,80 ± 0,3 mg/g PS; Protéines solubles (mg/g PS) [3]: 49,50 ± 1 mg/g PS |
